Results on 20 compounds are retold here after patent US12466781B2, “Thyromimetics” (Autobahn Therapeutics, Inc., priority 2019, dated 2025).

What is called EC50 is the concentration that produces a half-maximal response.

Assay [1] addresses T1, TRβ (Homo sapiens, UniProt P10828).
T1 construct: expressed in transfected cells; host or cells: HEK293
T1 sequence (P10828 217-461 limits assumed): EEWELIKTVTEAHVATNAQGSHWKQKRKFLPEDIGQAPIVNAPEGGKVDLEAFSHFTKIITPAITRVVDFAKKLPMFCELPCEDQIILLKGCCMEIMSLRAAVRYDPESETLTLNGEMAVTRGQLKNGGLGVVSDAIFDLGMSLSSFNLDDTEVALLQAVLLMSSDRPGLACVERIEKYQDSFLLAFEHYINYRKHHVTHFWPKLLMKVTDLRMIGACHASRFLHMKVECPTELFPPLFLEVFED
In words: Thyroid-hormone reporter-gene assay (TRβ-Gal4 hybrid, luciferase, HEK293). It counts as cell-based. The note with it: Table 2; for T3-SI (selectivity index): calculated as EC50 (TRα)/EC50 (TRβ); for EC50: reporter cells, 24 hr incubation, read-out: TRβ (EC50). As for the experimental part:
(§1) Compounds were tested for thyroid-hormone receptor activity using TR reporter-gene assays. Reporter cells used in the assays express a TR-receptor hybrid (either TRα or TRβ) in which the native N-terminal DNA binding domain (DBD) has been replaced with that of the yeast Gal4 DBD. The reporter gene, firefly luciferase, is functionally linked to the Gal4 upstream activation sequence (UAS). Both cell lines were derived from human embryonic kidney (HEK293).
(§2) Step 1: A suspension of reporter cells was prepared in cell recovery medium containing 10% charcoal-stripped FBS, and dispensed into assay plates. The plates were pre-incubated for 6 hours in a cell culture incubator (37° C./5% CO2/85% humidity).
(§3) These intermediate stocks were subsequently diluted directly into compound screening medium containing 10% charcoal-stripped FBS to generate “2×-concentration” treatment media (containing 0.2, 0.4 or 0.8% DMSO).
(§4) Step 3: At the end of the pre-incubation period, culture media were discarded from the assay plates, and all wells received 100 μl of compound screening medium. 100 μl of each of the previously prepared “2×-concentration” treatment media were dispensed into duplicate assay wells, thereby achieving the desired final treatment concentrations. The final concentration of DMSO in all assay wells was 0.1, 0.2 or 0.4%. Assay plates were incubated for 24 hr in a cell culture incubator (37° C./5% CO2/85% humidity).
(§5) Step 4: At the 24 h assay endpoint, treatment media were discarded and 100 μl/well of luciferase detection reagent was added. Relative luminometer units (RLUs) were quantified from each assay well.

Assay [2] concerns the target T2, TRα (Homo sapiens, UniProt P10827).
T2 construct: expressed in transfected cells; host or cells: HEK293
T2 sequence (P10827 163-410 isoform P10827-2 limits assumed): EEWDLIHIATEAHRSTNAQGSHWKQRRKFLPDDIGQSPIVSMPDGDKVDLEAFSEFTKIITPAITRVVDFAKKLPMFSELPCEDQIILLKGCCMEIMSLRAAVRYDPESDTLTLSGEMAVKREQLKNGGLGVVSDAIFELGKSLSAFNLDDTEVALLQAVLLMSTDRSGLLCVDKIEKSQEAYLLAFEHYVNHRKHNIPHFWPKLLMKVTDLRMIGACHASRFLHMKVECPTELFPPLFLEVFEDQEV
In words: Thyroid-hormone reporter-gene assay (TRα-Gal4 hybrid, luciferase, HEK293). It counts as cell-based. The note with it: reporter cells, 24 hr incubation; Table 2; read-out: TRα (EC50). The protocol: as §1, §2, §3, §4, §5

SMILES strings stand for the structures.

On to `CON(C)C(=O)COc1cc(Cl)c(Cc2ccc(O)c(C(C)C)c2F)c(Cl)c1` [Compound 22, 2-(3,5-dichloro-4-(2-fluoro-4-hydroxy-3-isopropylbenzyl)phenoxy)-N-methoxy-N-methylacetamide], for which, in assay [1], the “T3-SI (selectivity index)” value is “++ (3×<T3-SI≤30×)” and the EC50 fell in the range of 0.01 to 0.1 µM. The EC50 in assay [2] was 0.01 to 0.1 µM.

Consider `C=C(C)c1c(F)c(OCC(=O)O)cc(Cl)c1Cc1ccc(O)c(C(C)C)c1F` [Compound 121, 2-(5-chloro-2-fluoro-4-(2-fluoro-4-hydroxy-3-isopropylbenzyl)-3-(prop-1-en-2-yl)phenoxy)acetic acid], for which the “T3-SI (selectivity index)” value in assay [1] is “++ (3×<T3-SI≤30×)”. Besides, the EC50 in assay [1] is 0.1 to 1 µM; in assay [2], greater than 1 µM.

For the compound `CC(c1ccc(F)cc1)c1c(O)ccc(Cc2c(Cl)cc(OCC(=O)O)c(F)c2Cl)c1F` (stereo not drawn) [Compound 107, 2-(3,5-dichloro-2-fluoro-4-(2-fluoro-3-(1-(4-fluorophenyl)ethyl)-4-hydroxybenzyl)phenoxy)acetic acid], in assay [1], the “T3-SI (selectivity index)” value was “++ (3×<T3-SI≤30×)” and the EC50 was in the range of 0.01 to 0.1 µM. For the same compound, the EC50 in assay [2] lay in the range of 0.01 to 0.1 µM.

Take `Cc1cc(OCC(=O)O)c(F)c(Cl)c1Cc1ccc(O)c(C(C)C)c1` [Compound 115, 2-(3-chloro-2-fluoro-4-(4-hydroxy-3-isopropylbenzyl)-5-methylphenoxy)acetic acid]: in assay [1], the “T3-SI (selectivity index)” value is “++ (3×<T3-SI≤30×)” and the EC50 is 0.01 to 0.1 µM. Besides, the EC50 in assay [2] fell in the range of 0.1 to 1 µM.

For `Cc1cc(OCC(=O)O)cc(C)c1Cc1ccc(O)c(-c2cccc(OC(F)F)c2)c1F` [Compound 3, 2-(4-((3′-(difluoromethoxy)-2-fluoro-6-hydroxy-[1,1′-biphenyl]-3-yl)methyl)-3,5-dimethylphenoxy)acetic acid], in assay [1], the “T3-SI (selectivity index)” value is “++ (3×<T3-SI≤30×)” and the EC50 is 0.1 to 1 µM. Also, the EC50 in assay [2] was greater than 1 µM.

With `Cc1c(OCC(=O)O)cc(Cl)c(Cc2ccc(O)c(C(C)C)c2)c1Cl` [Compound 91, 2-(3,5-dichloro-4-(4-hydroxy-3-isopropylbenzyl)-2-methylphenoxy)acetic acid], in assay [1], the “T3-SI (selectivity index)” value was “+++ (T3-SI>30×)” and the EC50 was in the range of 0.01 to 0.1 µM. Moreover, the EC50 in assay [2] lay within 0.1 to 1 µM.

For `CCCC(c1ccc(F)cc1)c1c(O)ccc(Cc2c(Cl)cc(OCC(=O)O)cc2Cl)c1F` (stereo not drawn) [Compound 34, 2-(3,5-dichloro-4-(2-fluoro-3-(1-(4-fluorophenyl)butyl)-4-hydroxybenzyl)phenoxy)acetic acid], the “T3-SI (selectivity index)” value in assay [1] was “++ (3×<T3-SI≤30×)”. The EC50 in assay [1] is 0.1 to 1 µM; in assay [2], greater than 1 µM.

Turning to `CCc1cc(OCC(=O)O)c(F)c(Cl)c1Cc1ccc(O)c(C(C)C)c1` [Compound 77, 2-(3-chloro-5-ethyl-2-fluoro-4-(4-hydroxy-3-isopropylbenzyl)phenoxy)acetic acid], in assay [1], the “T3-SI (selectivity index)” value is “++ (3×<T3-SI≤30×)” and the EC50 was in the range of 0.01 to 0.1 µM. In addition, in assay [2], the EC50 lay in the range of 0.01 to 0.1 µM.

Regarding `O=C(O)COc1cc(Cl)c(Cc2ccc(O)c(-c3cc(OC(F)F)ccc3F)c2F)c(Cl)c1` [Compound 26, 2-(3,5-dichloro-4-((5′-(difluoromethoxy)-2,2′-difluoro-6-hydroxy-[1,1′-biphenyl]-3-VI)methyl)phenoxy)acetic acid], in assay [1], the “T3-SI (selectivity index)” value was “++ (3×<T3-SI≤30×)” and the EC50 lay within 0.01 to 0.1 µM. In addition, the EC50 in assay [2] fell in the range of 0.1 to 1 µM.

Consider `Cc1c(F)c(OCC(=O)O)cc(Cl)c1Cc1ccc(O)c(C(C)C)c1` [Compound 118, 2-(5-chloro-2-fluoro-4-(4-hydroxy-3-isopropylbenzyl)-3-methylphenoxy)acetic acid], for which, in assay [1], the “T3-SI (selectivity index)” value is “+++ (T3-SI>30×)” and the EC50 lay within 0.01 to 0.1 µM. Also, in assay [2], the EC50 lay within 0.1 to 1 µM.

Consider `C=C(C)c1cc(OCC(=O)O)cc(C)c1Cc1ccc(O)c(C(C)C)c1F` [Compound 12, 2-(4-(2-fluoro-4-hydroxy-3-isopropylbenzyl)-3-methyl-5-(prop-1-en-2-yl)phenoxy)acetic acid], for which, in assay [1], the “T3-SI (selectivity index)” value is “++ (3×<T3-SI≤30×)” and the EC50 was less than 0.01 µM. In addition, in assay [2], the EC50 was in the range of 0.01 to 0.1 µM.

Turning to `O=C(O)COc1cc(Cl)c(Cc2ccc(O)c(-c3cccc(OC(F)F)c3)c2F)c(Cl)c1` [Compound 24, 2-(3,5-dichloro-4-((3′-(difluoromethoxy)-2-fluoro-6-hydroxy-[1,1′-biphenyl]-3-VI)methyl)phenoxy)acetic acid], in assay [1], the “T3-SI (selectivity index)” value was “++ (3×<T3-SI≤30×)” and the EC50 lay in the range of 0.01 to 0.1 µM. Moreover, the EC50 in assay [2] was in the range of 0.1 to 1 µM.

Turning to `Cc1c(F)c(OCC(=O)O)cc(Cl)c1Cc1ccc(O)c(C(C)C)c1F` [Compound 112, 2-(5-chloro-2-fluoro-4-(2-fluoro-4-hydroxy-3-isopropylbenzyl)-3-methylphenoxy)acetic acid], in assay [1], the “T3-SI (selectivity index)” value is “++ (3×<T3-SI≤30×)” and the EC50 was less than 0.01 µM. Moreover, in assay [2], the EC50 was 0.01 to 0.1 µM.

Consider `CCCC(c1ccc(F)cc1)c1cc(Cc2c(Cl)cc(OCC(=O)O)c(F)c2Cl)ccc1O` (stereo not drawn) [Compound 85, 2-(3,5-dichloro-2-fluoro-4-(3-(1-(4-fluorophenyl)butyl)-4-hydroxybenzyl)phenoxy)acetic acid], for which, in assay [1], the “T3-SI (selectivity index)” value was “+++ (T3-SI>30×)”. Besides, the EC50 in assay [1] is 0.1 to 1 µM; in assay [2] it was greater than 1 µM.

In the case of `CC(C)c1cc(Cc2c(Cl)cc(OCC(=O)O)c(F)c2C(C)C)ccc1O` [Compound 73, 2-(5-chloro-2-fluoro-4-(4-hydroxy-3-isopropylbenzyl)-3-isopropylphenoxy)acetic acid], the “T3-SI (selectivity index)” value in assay [1] was “+++ (T3-SI>30×)”. Also, the values for the EC50 in assay [1] and in assay [2] were 0.1 to 1 µM and greater than 1 µM, respectively.

Turning to `Cc1cc(OCC(=O)O)c(F)c(C)c1Cc1ccc(O)c(C(C)C)c1F` [Compound 93, 2-(2-fluoro-4-(2-fluoro-4-hydroxy-3-isopropylbenzyl)-3,5-dimethylphenoxy)acetic acid], the “T3-SI (selectivity index)” value in assay [1] is “+++ (T3-SI>30×)”. The results for the EC50 in assay [1] and in assay [2] were 0.01 to 0.1 µM and 0.1 to 1 µM, respectively.

Turning to `O=C(O)COc1cc(Cl)c(Cc2ccc(O)c(Cc3ccc(F)cc3)c2)c(Cl)c1F` [Compound 83, 2-(3,5-dichloro-2-fluoro-4-(3-(4-fluorobenzyl)-4-hydroxybenzyl)phenoxy)acetic acid], in assay [1], the “T3-SI (selectivity index)” value is “+++ (T3-SI>30×)” and the EC50 fell in the range of 0.01 to 0.1 µM. Moreover, in assay [2], the EC50 fell in the range of 0.1 to 1 µM.

Turning to `CC(C)c1cc(Cc2c(Cl)cc(OCC(=O)O)c(Cl)c2Cl)ccc1O` [Compound 89, 2-(2,3,5-trichloro-4-(4-hydroxy-3-isopropylbenzyl)phenoxy)acetic acid], in assay [1], the “T3-SI (selectivity index)” value was “++ (3×<T3-SI≤30×)”. The EC50 in assay [1] and in assay [2] was 0.01 to 0.1 µM throughout.

For the compound `Cc1cc(OCC(=O)O)c(F)c(Cl)c1Cc1ccc(O)c(C(C)C)c1F` [Compound 109, 2-(3-chloro-2-fluoro-4-(2-fluoro-4-hydroxy-3-isopropylbenzyl)-5-methylphenoxy)acetic acid], in assay [1], the “T3-SI (selectivity index)” value was “+++ (T3-SI>30×)”. The EC50 is less than 0.01 µM in assay [1] and 0.01 to 0.1 µM in assay [2].

As for `Cc1cc(OCC(=O)O)cc(C)c1Cc1ccc(O)c(C(C)c2ccc(F)cc2)c1F` (stereo not drawn) [Compound 6, 2-(4-(2-fluoro-3-(1-(4-fluorophenyl)ethyl)-4-hydroxybenzyl)-3,5-dimethylphenoxy)acetic acid], the “T3-SI (selectivity index)” value in assay [1] was “++ (3×<T3-SI≤30×)”. The EC50 in assay [1] is less than 0.01 µM; in assay [2] it was 0.01 to 0.1 µM.
